Results: US6916851B2, “Skin care cosmetic methods of sebum control using carboxyalkylates of branched alcohols and/or alkoxylates thereof” (Unilever Home & Personal Care USA, a division of Conopco, …, priority 2002, dated 2005)
Marks after values point to notes of the source that are not given here.

Test system: human sebocytes
Assay: Inhibition of sebocyte lipogenesis (14C-acetate label remaining in sebocytes)
Type: cell-based
Conditions: for radioactive label remaining in the sebocytes, % of Control / IC50: 20 hour incubation, 96 well plate; for radioactive label remaining in the sebocytes, % of Control: lower = greater inhibition of lipogenesis; for IC50: read-out: IC 50 (concentration which provides a 50% sebum suppression relative to the control); for inhibition of lipogenesis, in words: all tested concentrations (1, 10, 100 μM)
Experimental: Secondary cultures of human sebocytes obtained from an adult […] were grown in 96-well tissue culture plates (Packard Co.; Meriden, Conn.) until confluent. Sebocyte growth medium consisted of Clonetics Keratinocyte Basal Medium (KBM) supplemented with 14 μg/ml bovine pituitary extract, 0.4 μg/ml hydrocortisone, 5 μg/ml insulin, 10 ng/ml epidermal growth factor, 1.2×10^−10 M cholera toxin, 100 units/ml penicillin, and 100 μg/ml streptomycin. All cultures were incubated at 37° C. in the presence of 7.5% CO2. Medium was changed three times per week.
On the day of experimentation, the growth medium was removed and the sebocytes washed three times with sterile Dulbecco's Modified Eagle Medium (DMEM; phenol red free). Fresh DMEM was added to each sample (duplicates, triplicates, or quadruplicates depending on the experiment) with 5 μL of test agent solubilized in ethanol or sterile, distilled water. Controls consisted of addition of ethanol alone or phenol red. Phenol Red, a known sebum suppressive agent, was employed as a positive control.
Each plate was returned to the incubator for 20 hours followed by the addition of ^14C-acetate buffer (5 mM final concentration, 56 mCi/mmol specific activity). Sebocytes were returned to the incubator for four hours after which each culture was rinsed three times with phosphate buffered saline to remove unbound label. Radioactive label remaining in the sebocytes was harvested and counted using a TopCount-NXT brand scintillation counter (Packard Co., Meriden, Conn.).
The results that were obtained, expressed in terms of amount of radioactive label remaining in the sebocytes as a percent of control, are summarized in Table 2. A lower radioactive label, i.e. a lower % of control, indicates a greater inhibition of sebocyte lipogenesis.
The experiments were conducted using the procedure set forth in the Example 3 above, with the concentrations of the compounds varied, in order to determine the concentration for each compound tested which provide a 50% sebum suppression.

Molecule	radioactive label remaining in the sebocytes, % of Control (100 μM)	IC50	other results
O=S1(=O)OC(c2ccc(O)cc2)(c2ccc(O)cc2)c2ccccc21 [Phenol Red]	46.3* % of Control		
C13 isoalcohol [Compound 4]		100 µM	
C13 isoalcohol glycerol [Compound 5]		> 100 µM	
C13 isoalcohol oxypropyl amine [Compound 3]		~100 µM	
C13 isoalcohol propionitrile [Compound 2]		> 100 µM	
iso-tridecyloxy propionic acid [Compound 1]	11.9* % of Control	5 µM	radioactive label remaining in the sebocytes, % of Control (1 μM): 48.7* % of Control; radioactive label remaining in the sebocytes, % of Control (10 μM): 34.6* % of Control; inhibition of lipogenesis, in words: enhanced inhibition of lipogenesis at all tested concentrations; effectiveness in inhibition of lipogenesis relative to TDCM (comparison of Table 2 data): almost twice as effective as TDCM; activity as sebum suppressant relative to the branched alcohol from which it is derived (from IC50 of Table 3): about 20 times
tridecylcarboxymethylate [TDCM]	22.8* % of Control		radioactive label remaining in the sebocytes, % of Control (1 μM): 84.8* % of Control; radioactive label remaining in the sebocytes, % of Control (10 μM): 43.4* % of Control; inhibition of lipogenesis, in words: enhanced inhibition of lipogenesis at all tested concentrations
